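The compound was tested at five concentrations on cells cultured in 96-well plates, with a 48-hour exposure period. Here, GI50 denotes the concentration required for 50% inhibition of growth.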 The source made the active and inactive calls. Cut-off read from the data, not from the text of the source: active = GI50 up to about 1.1 µM and inactive = higher.
Experiments:
Test in all cases: inhibition of tumour cell growth, NCI panel, 48 h
NCI-H226 = system: NCI-H226
TK-10 = system: TK-10
HOP-92 = system: HOP-92
UACC-62 = system: UACC-62
SF-268 = system: SF-268
HL-60 = system: HL-60
OVCAR-3 = system: OVCAR-3
OVCAR-4 = system: OVCAR-4
DU-145 = system: DU-145
Hs-578T = system: Hs-578T
HOP-62 = system: HOP-62
COLO 205 = system: COLO 205
MOLT-4 = system: MOLT-4
NCI-H23 = system: NCI-H23
SF-295 = system: SF-295
OVCAR-5 = system: OVCAR-5
SK-MEL-28 = system: SK-MEL-28
NCI/ADR-RES = system: NCI/ADR-RES
Malme-3M = system: Malme-3M
A498 = system: A498
MDA-N = system: MDA-N
IGROV-1 = system: IGROV-1
OVCAR-8 = system: OVCAR-8
SK-OV-3 = system: SK-OV-3
SR = system: SR
RPMI-8226 = system: RPMI-8226
HT-29 = system: HT-29
U-251 = system: U-251
A549 = system: A549
M14 = system: M14
PC-3 = system: PC-3
KM12 = system: KM12
SNB-19 = system: SNB-19
SW-620 = system: SW-620
ACHN = system: ACHN
HCT-15 = system: HCT-15
MDA-MB-435 = system: MDA-MB-435
EKVX = system: EKVX
MDA-MB-231 = system: MDA-MB-231
LOX IMVI = system: LOX IMVI
MCF7 = system: MCF7
NCI-H522 = system: NCI-H522
SNB-75 = system: SNB-75
UO-31 = system: UO-31
SK-MEL-2 = system: SK-MEL-2
SN12C = system: SN12C
786-0 = system: 786-0
HCT-116 = system: HCT-116
SK-MEL-5 = system: SK-MEL-5
K562 = system: K562
HCC 2998 = system: HCC 2998
NCI-H460 = system: NCI-H460
SF-539 = system: SF-539
UACC-257 = system: UACC-257
T47D = system: T47D
CAKI-1 = system: CAKI-1
CCRF-CEM = system: CCRF-CEM
RXF 393 = system: RXF 393

## O=C(NC(CS)C(=O)O)c1cccc2c(=O)c3ccccc3[nH]c12 (stereo not drawn)
NCI-H226
  GI50: > 100 µM (inactive)
TK-10
  GI50: > 100 µM (inactive)
HOP-92
  GI50: > 100 µM (inactive)
UACC-62
  GI50: > 100 µM (inactive)
SF-268
  GI50: > 100 µM (inactive)
HL-60
  GI50: > 100 µM (inactive)
OVCAR-3
  GI50: > 100 µM (inactive)
OVCAR-4
  GI50: > 100 µM (inactive)
DU-145
  GI50: > 100 µM (inactive)
Hs-578T
  GI50: > 100 µM (inactive)
HOP-62
  GI50: > 100 µM (inactive)
COLO 205
  GI50: > 100 µM (inactive)
MOLT-4
  GI50: > 100 µM (inactive)
NCI-H23
  GI50: > 100 µM (inactive)
SF-295
  GI50: > 100 µM (inactive)
OVCAR-5
  GI50: > 100 µM (inactive)
SK-MEL-28
  GI50: > 100 µM (inactive)
NCI/ADR-RES
  GI50: > 100 µM (inactive)
Malme-3M
  GI50: > 100 µM (inactive)
A498
  GI50: > 100 µM (inactive)
MDA-N
  GI50: > 100 µM (inactive)
IGROV-1
  GI50: > 100 µM (inactive)
OVCAR-8
  GI50: > 100 µM (inactive)
SK-OV-3
  GI50: > 100 µM (inactive)
SR
  GI50: > 100 µM (inactive)
RPMI-8226
  GI50: > 100 µM (inactive)
HT-29
  GI50: 83.4 µM (inactive)
U-251
  GI50: > 100 µM (inactive)
A549
  GI50: > 100 µM (inactive)
M14
  GI50: > 100 µM (inactive)
PC-3
  GI50: > 100 µM (inactive)
KM12
  GI50: > 100 µM (inactive)
SNB-19
  GI50: > 100 µM (inactive)
SW-620
  GI50: > 100 µM (inactive)
ACHN
  GI50: > 100 µM (inactive)
HCT-15
  GI50: > 100 µM
MDA-MB-435
  GI50: > 100 µM (inactive)
EKVX
  GI50: > 100 µM (inactive)
MDA-MB-231
  GI50: > 100 µM (inactive)
LOX IMVI
  GI50: > 100 µM (inactive)
MCF7
  GI50: > 100 µM (inactive)
NCI-H522
  GI50: 47 µM (inactive)
SNB-75
  GI50: > 100 µM (inactive)
UO-31
  GI50: > 100 µM (inactive)
SK-MEL-2
  GI50: > 100 µM (inactive)
SN12C
  GI50: > 100 µM (inactive)
786-0
  GI50: > 100 µM (inactive)
HCT-116
  GI50: > 100 µM (inactive)
SK-MEL-5
  GI50: > 100 µM (inactive)
K562
  GI50: > 100 µM (inactive)

## CCOC(=O)C(NC(=O)c1cccc(Cl)c1)(Nc1ccc(S(=O)(=O)Nc2cc(C)nc(C)n2)cc1)C(F)(F)F (stereo not drawn)
NCI-H226
  GI50: > 100 µM (inactive)
TK-10
  GI50: > 100 µM (inactive)
HOP-92
  GI50: 80.5 µM (inactive)
HCC 2998
  GI50: > 100 µM (inactive)
SF-268
  GI50: > 100 µM (inactive)
HL-60
  GI50: > 100 µM (inactive)
OVCAR-3
  GI50: > 100 µM (inactive)
OVCAR-4
  GI50: > 100 µM (inactive)
DU-145
  GI50: > 100 µM (inactive)
Hs-578T
  GI50: > 100 µM (inactive)
NCI-H460
  GI50: > 100 µM (inactive)
HOP-62
  GI50: > 100 µM (inactive)
COLO 205
  GI50: > 100 µM (inactive)
MOLT-4
  GI50: > 100 µM (inactive)
NCI-H23
  GI50: > 100 µM (inactive)
SF-295
  GI50: > 100 µM (inactive)
OVCAR-5
  GI50: > 100 µM (inactive)
SK-MEL-28
  GI50: > 100 µM (inactive)
NCI/ADR-RES
  GI50: > 100 µM (inactive)
Malme-3M
  GI50: > 100 µM (inactive)
A498
  GI50: > 100 µM (inactive)
IGROV-1
  GI50: > 100 µM (inactive)
OVCAR-8
  GI50: > 100 µM (inactive)
SK-OV-3
  GI50: > 100 µM (inactive)
SR
  GI50: 68.7 µM (inactive)
RPMI-8226
  GI50: > 100 µM (inactive)
SF-539
  GI50: > 100 µM (inactive)
UACC-257
  GI50: > 100 µM (inactive)
HT-29
  GI50: > 100 µM (inactive)
T47D
  GI50: > 100 µM (inactive)
U-251
  GI50: > 100 µM (inactive)
A549
  GI50: > 100 µM (inactive)
M14
  GI50: > 100 µM (inactive)
PC-3
  GI50: > 100 µM (inactive)
KM12
  GI50: > 100 µM (inactive)
SNB-19
  GI50: > 100 µM (inactive)
SW-620
  GI50: > 100 µM (inactive)
ACHN
  GI50: > 100 µM (inactive)
CAKI-1
  GI50: > 100 µM (inactive)
HCT-15
  GI50: > 100 µM
MDA-MB-435
  GI50: > 100 µM (inactive)
EKVX
  GI50: > 100 µM (inactive)
MDA-MB-231
  GI50: > 100 µM (inactive)
LOX IMVI
  GI50: > 100 µM (inactive)
MCF7
  GI50: > 100 µM (inactive)
NCI-H522
  GI50: > 100 µM (inactive)
SNB-75
  GI50: > 100 µM (inactive)
CCRF-CEM
  GI50: > 100 µM (inactive)
UO-31
  GI50: > 100 µM (inactive)
SK-MEL-2
  GI50: > 100 µM (inactive)
SN12C
  GI50: > 100 µM (inactive)
786-0
  GI50: > 100 µM (inactive)
HCT-116
  GI50: > 100 µM (inactive)
SK-MEL-5
  GI50: > 100 µM (inactive)

## CN(C)CCOC1(Cc2ccc(Cl)cc2Cl)CCC(C(C)(C)C)CC1 (stereo not drawn)
RXF 393
  GI50: 1.97 µM (inactive)
TK-10
  GI50: 1.26 µM (inactive)
HCC 2998
  GI50: 1.57 µM (inactive)
UACC-62
  GI50: 7.23 µM (inactive)
SF-268
  GI50: 3.01 µM (inactive)
OVCAR-3
  GI50: 2.42 µM (inactive)
OVCAR-4
  GI50: 2.42 µM (inactive)
Hs-578T
  GI50: 2.4 µM (inactive)
NCI-H460
  GI50: < 0.01 µM (active)
HOP-62
  GI50: 1.84 µM (inactive)
COLO 205
  GI50: 1.56 µM (inactive)
MOLT-4
  GI50: 1.85 µM (inactive)
NCI-H23
  GI50: 1.91 µM (inactive)
SF-295
  GI50: 2.09 µM (inactive)
OVCAR-5
  GI50: 1.86 µM (inactive)
SK-MEL-28
  GI50: 1.47 µM (inactive)
NCI/ADR-RES
  GI50: 1.47 µM (inactive)
Malme-3M
  GI50: 1.73 µM (inactive)
A498
  GI50: 1.83 µM (inactive)
IGROV-1
  GI50: 1.83 µM (inactive)
OVCAR-8
  GI50: 1.63 µM (inactive)
SK-OV-3
  GI50: 10.5 µM (inactive)
SR
  GI50: 0.0266 µM (active)
RPMI-8226
  GI50: 1.6 µM (inactive)
SF-539
  GI50: 2.02 µM (inactive)
UACC-257
  GI50: 1.11 µM (active)
HT-29
  GI50: 1.43 µM (inactive)
U-251
  GI50: 1.88 µM (inactive)
A549
  GI50: 2.23 µM (inactive)
M14
  GI50: 1.54 µM (inactive)
PC-3
  GI50: 1.68 µM (inactive)
KM12
  GI50: 1.72 µM (inactive)
SNB-19
  GI50: 2.22 µM (inactive)
SW-620
  GI50: 2.4 µM (inactive)
ACHN
  GI50: 2.27 µM (inactive)
CAKI-1
  GI50: 15.9 µM (inactive)
MDA-MB-435
  GI50: 1.64 µM (inactive)
MDA-MB-231
  GI50: 1.77 µM (inactive)
LOX IMVI
  GI50: 1.78 µM (inactive)
MCF7
  GI50: 2.19 µM (inactive)
NCI-H522
  GI50: 2 µM (inactive)
SNB-75
  GI50: 4.27 µM (inactive)
CCRF-CEM
  GI50: 1.88 µM (inactive)
SK-MEL-2
  GI50: 1.16 µM (inactive)
SN12C
  GI50: 1.73 µM (inactive)
786-0
  GI50: 1.58 µM (inactive)
HCT-116
  GI50: 1.95 µM (inactive)
SK-MEL-5
  GI50: 2.36 µM (inactive)
K562
  GI50: 1.69 µM (inactive)
